# Test results as given in patent EP0355409A2, “Use of prolylendopeptidase inhibitors in the treatment of AIDS” (KABUSHIKI KAISHA YAKULT HONSHA, priority 1988, dated 1990).
# Square brackets hold non-standard residues; d marks the D form. Peptide text beside a SMILES is read from it. * marks the point of attachment. Cbz = O=C(OCc1ccccc1)*; Thz = O=C(O)[CH]1CSCN1
# How the values were obtained:
# [1] = test system: LAV-1 infected CEM cells (CEM/LAV-1) and MOLT4 Clone 8; test: Inhibition of syncytia formation in mixed culture of HIV-infected and non-infected T cells; format: cell-based; parameters: key: -: Absolutely no inhibition of syncytium formation.; ±: Slight inhibition of syncytium formation.; +: Partial inhibition of syncytium formation.; ++: Substantial inhibition of syncytium formation.; +++: Complete inhibition of syncytium formation; details: 1 mM; CEM/LAV-1 + MOLT4 Clone 8, 37°C, 18 hours
# Text: When HIV-infected T cells and non-infected T cells are mixed in a test tube, the infected T cells and non-infected T cells undergo fusion and form giant cells. This "syncytium forming phenomenon" has already been known to be observed upon their mixing. This phenomenon is characteristic to intercellular infection from HIV and is regarded as an evidence for HIV infection of T cells.
# (§1) LAV-1 infected CEM cells (CEM/LAV-1, 2 x 10⁴) and MOLT4 Clone 8 (1 x 10⁵) were used as HIV-infected cells and non-infected cells, respectively. Those two types of cells were cultured in 200 µl/well of RPMI1640 medium added with 10% FCS in a 96-well microplate. The PEP inhibitors of this invention and comparative product, which are shown in Table 1, were separately added. The cells were cultured at 37°C for 18 hours in a capneic incubator. Formation of syncytia was observed. The PEP inhibitory action was measured according to the following method.
# [2] = target: T1, PEP derived from bovine brain (Bos taurus, UniProt Q9XTA2); test: Measurement of PEP inhibitory action (substrate Z-Gly-Pro-β-naphtyl amide); format: biochemical; details: pH 7.0, 37°C, read-out: PEP Inhibition IC50
# T1 construct: PEP derived from bovine brain; from tissue; host or cells: bovine brain
# T1 sequence (Q9XTA2 1-710): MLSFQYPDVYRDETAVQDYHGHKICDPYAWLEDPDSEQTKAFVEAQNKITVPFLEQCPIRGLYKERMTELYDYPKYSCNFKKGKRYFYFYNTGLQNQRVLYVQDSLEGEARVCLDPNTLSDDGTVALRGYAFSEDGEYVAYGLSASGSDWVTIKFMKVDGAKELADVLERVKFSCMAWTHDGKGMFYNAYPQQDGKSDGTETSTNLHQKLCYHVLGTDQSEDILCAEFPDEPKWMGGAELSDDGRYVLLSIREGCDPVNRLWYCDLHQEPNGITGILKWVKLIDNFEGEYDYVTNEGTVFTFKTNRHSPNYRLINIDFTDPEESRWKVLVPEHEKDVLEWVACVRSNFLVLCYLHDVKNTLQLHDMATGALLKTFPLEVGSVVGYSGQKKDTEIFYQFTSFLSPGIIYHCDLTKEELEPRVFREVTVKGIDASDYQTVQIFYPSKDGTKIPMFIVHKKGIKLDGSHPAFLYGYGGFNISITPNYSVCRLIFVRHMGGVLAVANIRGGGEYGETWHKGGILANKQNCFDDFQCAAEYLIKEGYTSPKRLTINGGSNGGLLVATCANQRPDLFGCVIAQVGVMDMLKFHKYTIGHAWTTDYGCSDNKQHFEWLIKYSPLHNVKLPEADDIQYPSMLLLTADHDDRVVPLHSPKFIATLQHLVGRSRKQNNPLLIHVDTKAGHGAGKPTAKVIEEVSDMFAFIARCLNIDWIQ
# Description: as §1, with “Those” for “LAV-1 infected CEM cells (CEM/LAV-1, 2 x 10⁴) and MOLT4 Clone 8 (1 x 10⁵) were used as HIV-infected cells and non-infected cells, respectively. Those”
# Z-Gly-Pro-β-naphtyl amide was used as a substrate and the inhibitory action against PEP derived from bovine brain was measured.
# 0.7 ml of 20 mM-tris HCl buffer (pH 7.0) containing 10 mM of EDTA and 10 mM of 2-mercaptoethanol was added with 100 µl of PEP (about 0.14 u/ml) and 100 µl of a test solution which had been prepared to have a predetermined concentration (0, 10⁻⁹ - 10⁻⁴M), and subjected to preincubation at 37°C for 5 minutes. To this was added various concentrations of a substrate which had been dissolved in 100 µl of 40% dioxane followed by incubation at 37°C for 15 minutes to proceed an exzymatic reaction. The reaction was terminated by the use of 25% trichloroacetic acid. The solution was centrifugally separated at 3,000 rpm for 10 minutes to obtain 0.5 ml of a supernatent, to which was added 0.5 ml of 0.1% nitrous acid, and 3 minutes after, 0.05% N-(1-naphtyl)ethylendediaminedihydrochloride ethanol solution. After allowing the mixture to stand at 37°C for 25 minutes, the absorbance at 570 nm was measured. […] Enzyme activity unit (µmol/min/ml) = ΔOD x 0.42 x dilution ratio
Structure (SMILES),Inhibition of Syncytia Formation [1],IC50 [2] [µM]
O=C(C1CCCN1C(=O)OCc1ccccc1)N1CCCCC1 (stereo not drawn),±,> 1000
O=C(C1CSCN1C(=O)OCc1ccccc1)N1CCOCC1 (stereo not drawn),–,0.54
O=C(C1CSCN1C(=O)OCc1ccccc1)N1CCCC1 (stereo not drawn),–,0.16
O=C(C1CCCN1C(=O)OCc1ccccc1)N1CCSC1 (stereo not drawn),++,0.0046
O=C(C1CSCN1C(=O)OCc1ccccc1)N1CCSC1 (stereo not drawn),+++,0.00014
O=CC1CSCN1C(=O)C1CCCN1C(=O)OCc1ccccc1 (stereo not drawn) (Cbz-Pro-[Thz]-aldehyde; configuration not given here),++,0.001
O=CC1CSCN1C(=O)C1CSCN1C(=O)OCc1ccccc1 (stereo not drawn) (Cbz-[Thz]-[Thz]-aldehyde; configuration not given here),+++,–
"O=C(C1CSCN1)N1CCSC1 (stereo not drawn) [comparative product, reference compound]",–,> 1000
